In PubChem BioAssay AID1508612 one finds Papp data, which are given here for 46 compounds.

What is called Papp is a coefficient for how fast a substance crosses the barrier.

The data set in a line: passive permeability, PAMPA, ADME assay (AID 1508612). Conditions: pH 7.4, 30.0 min, 50.0 µM.

`CCOC(=O)c1ccnc(CNCC(=O)N(CC)CCN(C)C)c1`: the Papp was 40.4 ×10⁻⁶ cm/s.

For the compound `Cc1ccccc1C(=O)N1CCc2cc(N3CCC(NC(=O)Cc4ccccc4)C3)ccc21` (stereo unspecified), the Papp came to 783 ×10⁻⁶ cm/s.

As for `O=C1Nc2cc(Cl)ccc2/C1=C\c1cc(Cl)c(O)c(Cl)c1`, the Papp was 78 ×10⁻⁶ cm/s.

Compound `O=[S+]([O-])(Nc1nccs1)c1ccc(NCc2cc(F)cc(Cl)c2O)cc1` came in with an apparent permeability (Papp) of 18.1 ×10⁻⁶ cm/s.

With `Cc1ccc(-c2nnc(Nc3ccc(Br)cc3)c3ccccc23)cc1S(=O)(=O)N1CCN(C)CC1`, the apparent permeability (Papp) is over 1000 ×10⁻⁶ cm/s.

Take `CC1CCN(S(=O)(=O)c2ccc3c(c2)C(C)(C)C(=O)N3CC(=O)NCc2ccco2)CC1`: the Papp turned out to be 584 ×10⁻⁶ cm/s.

Turning to `N#Cc1ccccc1-c1csc(N2CCC(C(N)=O)CC2)n1`, the Papp turned out to be 343 ×10⁻⁶ cm/s.

As for `Cc1noc(-c2cn(C3CCN(C(=O)c4ccc(OC(F)(F)F)cc4)CC3)nn2)n1`, the Papp is 10.2 ×10⁻⁶ cm/s.

The compound `COc1ccc(-n2nc(C)c([C@@H]3C=C[C@@H](NCc4ccc(F)cc4)C3)c2C)cc1` had a Papp of over 1000 ×10⁻⁶ cm/s.

`CC1=C(C(=O)NC2CCCC2)C(c2nn(C)cc2Cl)N=C(Nc2nc3ccccc3o2)N1` (stereo unspecified): the apparent permeability coefficient (Papp) is over 1000 ×10⁻⁶ cm/s.

`O=[N+]([O-])c1cccc(CSc2nc3ncc(Br)cc3[nH]2)c1` gave a Papp of 550 ×10⁻⁶ cm/s.

In turn, `COc1cc(Cl)c(C)cc1Nc1c2c(nc3ccccc13)CCC2` displayed an apparent permeability (Papp) of over 1000 ×10⁻⁶ cm/s.

As to `COc1cc(-c2c(C#N)c(N)nc3c2c(C)nn3-c2ccc(F)cc2)ccc1O`, the Papp was over 1000 ×10⁻⁶ cm/s.

`CNC(=O)C1CCN(c2nc(-c3ccc(Br)cc3)cs2)CC1` came in with an apparent permeability (Papp) of 736 ×10⁻⁶ cm/s.

As to `Cn1cc(S(=O)(=O)N2CCCCCC2)cc1C(=O)Nc1ccc(Cl)c(C(F)(F)F)c1`, the apparent permeability (Papp) was found to be 305 ×10⁻⁶ cm/s.

Turning to `Cc1cn2c(N)c(Cl)cc(C(=O)NCC3CCN(CC(C)C)CC3)c2n1`, the apparent permeability coefficient (Papp) worked out at 606 ×10⁻⁶ cm/s.

Turning to `CCC(=O)N1CCN(c2ccc(-n3c(=O)ccc4cnc5ccc(-c6cnc7ccccc7c6)cc5c43)cc2C(F)(F)F)CC1`, the apparent permeability coefficient (Papp) is 178 ×10⁻⁶ cm/s.

Compound `NC(=O)C1CCN(c2nnc(-c3ccc4c(c3)OCCCO4)s2)CC1` displayed a Papp of 83.8 ×10⁻⁶ cm/s.

As for `CNC(=O)C1CCN(C(=O)c2ccc(-c3ncc4cnc(-c5ccccc5)cn34)cc2)CC1`, the Papp is 15.4 ×10⁻⁶ cm/s.

With `COc1ccc(NC(=O)c2c(C)cccc2C)cc1[S+](=O)([O-])N(C)C`, the Papp was 196 ×10⁻⁶ cm/s.

On to `CN(C)c1cc(-c2nc(Nc3ccc(F)c(F)c3)c3ccccc3n2)ccn1`, for which the apparent permeability coefficient (Papp) was over 1000 ×10⁻⁶ cm/s.

Take `O=C(Nc1cccc(F)c1)c1cc(-c2ccc[nH]2)n[nH]1`: the Papp amounted to 136 ×10⁻⁶ cm/s.

On to `CC(C)c1ccccc1-c1ncc(F)c(NCc2ccc(-c3cccnc3)s2)n1`, for which the apparent permeability (Papp) is over 1000 ×10⁻⁶ cm/s.

Turning to `O=C(Nc1cncc(Cc2ccccc2)c1)c1ccc(-c2cccc([N+](=O)[O-])c2)o1`, the Papp was over 1000 ×10⁻⁶ cm/s.

In the case of `COc1cccc(C(=O)Nc2ccc3oc(-c4ccc5ccccc5c4)nc3c2)c1`, the Papp worked out at 533 ×10⁻⁶ cm/s.

Compound `COc1cc2ncnc(Nc3ccc(Oc4ccccc4)cc3)c2cc1OC` displayed a Papp of over 1000 ×10⁻⁶ cm/s.

Regarding `Cn1nnnc1Sc1ncnc2scc(-c3ccc(F)cc3)c12`, the Papp was 911 ×10⁻⁶ cm/s.

On to `C[S+](=O)([O-])c1ccc(-c2nc(C(=O)NCc3cccnc3)n3ccccc23)cc1`, for which the apparent permeability coefficient (Papp) is 540 ×10⁻⁶ cm/s.

As to `O=C(CCCN1CCC2(CC1)C(=O)N(Cc1cccc(F)c1)CN2c1ccccc1)c1ccc(F)cc1`, the Papp came out at 21 ×10⁻⁶ cm/s.

On to `Brc1ccc(-c2csc(N3CCCCC3)n2)cc1`, for which the Papp was 111 ×10⁻⁶ cm/s.

The compound `NC(=O)C1CCN(c2nc(-c3ccc4ccccc4c3)cs2)CC1` displayed a Papp of 406 ×10⁻⁶ cm/s.

`Cc1nnc2n1-c1ccc(Cl)cc1C(c1ccccc1)=NC2` gave a Papp of 125 ×10⁻⁶ cm/s.

As to `CCOC(=O)c1nn(-c2ccccc2)c(=O)c2c(N)scc12`, the apparent permeability coefficient (Papp) was over 1000 ×10⁻⁶ cm/s.

`Cc1sc(NC(=O)Cc2ccc3c(c2)OCO3)nc1-c1ccc2c(c1)CCN2C` had an apparent permeability coefficient (Papp) of under 1 ×10⁻⁶ cm/s.

Regarding `CCc1ccccc1-n1c(SCC(=O)Nc2ccc(C)cc2)nc2n[nH]c(C)c2c1=N`, the apparent permeability coefficient (Papp) is 95.3 ×10⁻⁶ cm/s.

In turn, `CCOc1ccc(NC(=O)c2nc(S(=O)(=O)Cc3ccccc3F)ncc2Cl)cc1` yielded an apparent permeability coefficient (Papp) of 882 ×10⁻⁶ cm/s.

As for `COCCCNC(=O)c1cc2cc(S(=O)(=O)N(C)C)ccc2n1C`, the apparent permeability (Papp) is 77.2 ×10⁻⁶ cm/s.

Compound `Cc1cccc(-n2cnc3cc(C(=O)N4CCCC(C)(C)C4)ccc32)c1` displayed a Papp of over 1000 ×10⁻⁶ cm/s.

With `CC(C)c1c(-c2ccccc2)nc2c(C#N)c[nH]n2c1=O`, the Papp is 9.91 ×10⁻⁶ cm/s.

Compound `O=c1ncn2nc(Sc3ccc(F)cc3F)ccc2c1-c1c(Cl)cccc1Cl` showed a Papp of 866 ×10⁻⁶ cm/s.

`Clc1ccccc1-c1nnc2sc(-c3ccc4c(c3)OCO4)nn12`: the Papp is 958 ×10⁻⁶ cm/s.

For the compound `CC1(C)C(=O)NC2=C1C(=O)C(=O)c1ccccc12`, the Papp came to 12.5 ×10⁻⁶ cm/s.

With `Cc1cccc(-n2c(C)cc(C=C(C#N)C#N)c2C)c1`, the Papp came to 43 ×10⁻⁶ cm/s.

Take `COc1ccccc1N1CCN(CCN(C(=O)c2ccc(I)cc2)c2ccccn2)CC1`: the Papp is over 1000 ×10⁻⁶ cm/s.

The compound `Cc1ccc(Cl)cc1NS(=O)(=O)c1cc2c(cc1F)NC(=O)CC2` gave a Papp of 581 ×10⁻⁶ cm/s.

Consider `C#CCNC(=O)c1nc(-c2ccc(Cl)nc2)c2ccccn12`, for which the Papp came out at 802 ×10⁻⁶ cm/s.
